Laboratory results as given in patent US8604040B2 (priority 2010, dated 2013).
Read-outs that look alike come from different tables or passages of the source. Marks after values point to notes of the source that are not given here.

Experiment: log P by HPLC (EEC Directive 79/831 Annex V.A8)
Format: physicochemical
[1] = [b] LC-MS, acidic range, pH 2.7, 0.1% aqueous formic acid and acetonitrile
[2] = [c] LC-MS, neutral range, pH 7.8, 0.001 molar aqueous ammonium hydrogencarbonate and acetonitrile

Row | Structure (SMILES) | log P [1] | log P [2] | chromatographic logP (HPLC (LC-MS), [b] LC-MS, acidic range, pH 2.7, 0.1% aqueous formic acid and acetonitrile, read-out: log P) | chromatographic logP (HPLC, pH 2.7, given in the preparation examples, read-out: logP (pH2.7))
1 | Cc1ccccc1CSC(=O)c1cccc(C2CCN(C(=O)Cn3nc(C(F)(F)F)cc3C)CC2)n1 [Example 56] | 4.57 | 4.58 |  | 
2 | Cc1cc(C(F)(F)F)nn1CC(=O)N1CCC(c2cccc(C(=O)SCc3ccccc3Cl)n2)CC1 [Example 57] | 4.61^[b]; 4.61^[c] | 4.61^[b]; 4.61^[c] |  | 
3 | Cc1cc(C(F)(F)F)nn1CC(=O)N1CCC(c2cccc(C(=O)SCc3c(F)cccc3F)n2)CC1 [Example 58] | 4.27 | 4.29 |  | 
4 | Cc1cc(C(F)(F)F)nn1CC(=O)N1CCC(c2cccc(C(=O)SCc3ccc(F)cc3)n2)CC1 [Example 59] | 4.29 | 4.31 |  | 
5 | Cc1cc(C(F)(F)F)nn1CC(=O)N1CCC(c2cccc(C(=O)Sc3cccc4ccccc34)n2)CC1 [Example 60] | 4.41 | 4.46 |  | 
6 | Cc1cc(C(F)(F)F)nn1CC(=O)N1CCC(c2cccc(C(=O)Sc3ccc4ccccc4c3)n2)CC1 [Example 61] | 4.57 | 4.61 |  | 
7 | Cc1cc(C(F)(F)F)nn1CC(=O)N1CCC(c2cccc(C(=O)Sc3ccccc3)n2)CC1 [Example 62] | 3.95^[b]; 3.95^[c] | 3.95^[b]; 3.95^[c] |  | 
8 | Cc1cc(C(F)(F)F)nn1CC(=O)N1CCC(c2cccc(C(=O)Sc3cccs3)n2)CC1 [Example 63] | 3.85 | 3.88 |  | 
9 | Cc1cc(C(F)(F)F)nn1CC(=O)N1CCN(c2cccc(C(=O)N(C)C3CCCCC3)n2)CC1 [Example 64] | 3.19 | 3.21 |  | 
10 | Cc1cc(C(F)(F)F)nn1CC(=O)N1CCN(c2cccc(C(=O)NCc3ccccc3Cl)n2)CC1 [Example 65] | 3.34 | 3.36 |  | 
11 | Cc1cc(C(F)(F)F)nn1CC(=O)N1CCN(c2cccc(C(=O)NCc3c(F)cccc3F)n2)CC1 [Example 66] | 3.11 | 3.12 |  | 
12 | Cc1cc(C(F)(F)F)nn1CC(=O)N1CCN(c2cccc(C(=O)NCc3cccs3)n2)CC1 [Example 67] | 2.92 | 2.93 |  | 
13 | Cc1cc(C(F)(F)F)nn1CC(=O)N1CCN(c2cccc(C(=O)OCc3ccccc3Cl)n2)CC1 [Example 72] | 3.89 | 3.9 |  | 
14 | Cc1cc(C(F)(F)F)nn1CC(=O)N1CCN(c2cccc(C(=O)OCc3c(F)cccc3F)n2)CC1 [Example 74] | 3.54 | 3.55 |  | 
15 | Cc1cc(C(F)(F)F)nn1CC(=O)N1CCN(c2cccc(C(=O)Oc3ccc4ccccc4c3)n2)CC1 [Example 76] | 4.01 | 4.02 |  | 
16 | CN(C(=O)c1cccc(C2CCN(C(=O)Cn3nc(C(F)F)cc3C(F)F)CC2)n1)c1ccccc1Cl [Example 77] | 3.01^[b]; 3.01^[c] | 3.01^[b]; 3.01^[c] |  | 
17 | CN(C(=O)c1cccc(C2CCN(C(=O)Cn3nc(C(F)F)cc3C(F)F)CC2)n1)C1CCCCC1 [Example 78] | 3.02 | 3.08 |  | 
18 | CN(Cc1ccc(Cl)cc1Cl)C(=O)c1cccc(C2CCN(C(=O)Cn3nc(C(F)F)cc3C(F)F)CC2)n1 [Example 79] | 3.66 | 3.73 |  | 
19 | CN(Cc1ccccn1)C(=O)c1cccc(C2CCN(C(=O)Cn3nc(C(F)F)cc3C(F)F)CC2)n1 [Example 80] | 1.81 | 2.18 |  | 
20 | O=C(Cn1nc(C(F)F)cc1C(F)F)N1CCC(c2cccc(C(=O)N3CCOc4ccccc43)n2)CC1 [Example 81] | 2.98 | 2.97 |  | 
21 | CC(NC(=O)c1cccc(C2CCN(C(=O)Cn3nc(C(F)F)cc3C(F)F)CC2)n1)c1ccccc1Cl (stereo not shown) [Example 82] | 3.53 | 3.61 |  | 
22 | CCCCCC(C)NC(=O)c1cccc(C2CCN(C(=O)Cn3nc(C(F)F)cc3C(F)F)CC2)n1 (stereo not shown) [Example 83] | 3.99 | 3.95 |  | 

Row | Structure (SMILES) | log P [1] | log P [2] | chromatographic logP (HPLC (LC-MS), [b] LC-MS, acidic range, pH 2.7, 0.1% aqueous formic acid and acetonitrile, read-out: log P) | chromatographic logP (HPLC, pH 2.7, given in the preparation examples, read-out: logP (pH2.7))
23 | O=C(NC1CCc2ccccc21)c1cccc(C2CCN(C(=O)Cn3nc(C(F)F)cc3C(F)F)CC2)n1 (stereo not shown) [Example 84] | 3.4 | 3.44 |  | 
24 | CCCCCCCNC(=O)c1cccc(C2CCN(C(=O)Cn3nc(C(F)F)cc3C(F)F)CC2)n1 [Example 85] | 3.96 | 4.05 |  | 
25 | O=C(NCc1ccc(Cl)cc1Cl)c1cccc(C2CCN(C(=O)Cn3nc(C(F)F)cc3C(F)F)CC2)n1 [Example 86] | 3.86^[b]; 3.86^[c] | 3.86^[b]; 3.86^[c] |  | 
26 | O=C(NCc1ccc(F)cc1F)c1cccc(C2CCN(C(=O)Cn3nc(C(F)F)cc3C(F)F)CC2)n1 [Example 87] | 3.22 | 3.24 |  | 
27 | O=C(NCc1ccccc1Cl)c1cccc(C2CCN(C(=O)Cn3nc(C(F)F)cc3C(F)F)CC2)n1 [Example 88] | 3.35 | 3.39 |  | 
28 | O=C(NCc1c(F)cccc1F)c1cccc(C2CCN(C(=O)Cn3nc(C(F)F)cc3C(F)F)CC2)n1 [Example 89] | 3.11 | 3.14 |  | 
29 | O=C(NCc1ccccn1)c1cccc(C2CCN(C(=O)Cn3nc(C(F)F)cc3C(F)F)CC2)n1 [Example 90] | 1.83 | 2.37 |  | 
30 | O=C(NCc1cccs1)c1cccc(C2CCN(C(=O)Cn3nc(C(F)F)cc3C(F)F)CC2)n1 [Example 91] | 2.98 | 2.97 |  | 
31 | Cc1ccsc1CNC(=O)c1cccc(C2CCN(C(=O)Cn3nc(C(F)F)cc3C(F)F)CC2)n1 [Example 92] | 3.19 | 3.18 |  | 
32 | COC1CCCCC1OC(=O)c1cccc(C2CCN(C(=O)Cn3nc(C(F)F)cc3C(F)F)CC2)n1 (stereo not shown) [Example 97] | 4.17^[b] |  |  | 
33 | O=C(OC1C=CCCC1)c1cccc(C2CCN(C(=O)Cn3nc(C(F)F)cc3C(F)F)CC2)n1 (stereo not shown) [Example 98] | 3.87^[b] |  |  | 
34 | O=C(OC1CCCCC1)c1cccc(C2CCN(C(=O)Cn3nc(C(F)F)cc3C(F)F)CC2)n1 [Example 99, Cyclohexyl 6-(1-{[3,5-bis(difluoromethyl)-1H-pyrazol-1-yl]acetyl}piperidin-4-yl)-pyridine-2-carboxylate] |  |  | 3.83 | 3.83
35 | O=C(OC1CCCc2ccccc21)c1cccc(C2CCN(C(=O)Cn3nc(C(F)F)cc3C(F)F)CC2)n1 (stereo not shown) [Example 100] | 4.07^[b] |  |  | 
36 | C=CCCCCOC(=O)c1cccc(C2CCN(C(=O)Cn3nc(C(F)F)cc3C(F)F)CC2)n1 [Example 101] | 3.8^[b] |  |  | 
37 | CCCCCCCOC(=O)c1cccc(C2CCN(C(=O)Cn3nc(C(F)F)cc3C(F)F)CC2)n1 [Example 102] | 4.59^[b] |  |  | 
38 | O=C(OCc1ccc(F)cc1F)c1cccc(C2CCN(C(=O)Cn3nc(C(F)F)cc3C(F)F)CC2)n1 [Example 103] | 3.54^[b] |  |  | 
39 | O=C(OCc1c(F)cc(F)cc1F)c1cccc(C2CCN(C(=O)Cn3nc(C(F)F)cc3C(F)F)CC2)n1 [Example 104] | 3.57^[b] |  |  | 
40 | O=C(OCc1ccccc1Cl)c1cccc(C2CCN(C(=O)Cn3nc(C(F)F)cc3C(F)F)CC2)n1 [Example 105] | 3.77^[b] |  |  | 
41 | O=C(OCc1ccccc1F)c1cccc(C2CCN(C(=O)Cn3nc(C(F)F)cc3C(F)F)CC2)n1 [Example 106] | 3.45^[b] |  |  | 
42 | O=C(OCc1c(F)cccc1F)c1cccc(C2CCN(C(=O)Cn3nc(C(F)F)cc3C(F)F)CC2)n1 [Example 107] | 3.44^[b] |  |  | 
43 | Cc1cccnc1COC(=O)c1cccc(C2CCN(C(=O)Cn3nc(C(F)F)cc3C(F)F)CC2)n1 [Example 108] | 2.14^[b] |  |  | 
44 | Cc1csc(COC(=O)c2cccc(C3CCN(C(=O)Cn4nc(C(F)F)cc4C(F)F)CC3)n2)c1 [Example 109] | 3.6^[b] |  |  | 
